{"source": "paper PMC3083694", "about": "“Effects of Intermediates between Vitamins K2 and K3 on Mammalian DNA Polymerase Inhibition and Anti-Inflammatory Activity” (International Journal of Molecular Sciences, 2011)", "key": {"Human DNA polymerase κ": {"molecular_target": "T1, Human DNA polymerase κ (Homo sapiens, UniProt Q9UBT6)", "T1 construct": "made in house", "T1 sequence (Q9UBT6 1-560 limits assumed)": "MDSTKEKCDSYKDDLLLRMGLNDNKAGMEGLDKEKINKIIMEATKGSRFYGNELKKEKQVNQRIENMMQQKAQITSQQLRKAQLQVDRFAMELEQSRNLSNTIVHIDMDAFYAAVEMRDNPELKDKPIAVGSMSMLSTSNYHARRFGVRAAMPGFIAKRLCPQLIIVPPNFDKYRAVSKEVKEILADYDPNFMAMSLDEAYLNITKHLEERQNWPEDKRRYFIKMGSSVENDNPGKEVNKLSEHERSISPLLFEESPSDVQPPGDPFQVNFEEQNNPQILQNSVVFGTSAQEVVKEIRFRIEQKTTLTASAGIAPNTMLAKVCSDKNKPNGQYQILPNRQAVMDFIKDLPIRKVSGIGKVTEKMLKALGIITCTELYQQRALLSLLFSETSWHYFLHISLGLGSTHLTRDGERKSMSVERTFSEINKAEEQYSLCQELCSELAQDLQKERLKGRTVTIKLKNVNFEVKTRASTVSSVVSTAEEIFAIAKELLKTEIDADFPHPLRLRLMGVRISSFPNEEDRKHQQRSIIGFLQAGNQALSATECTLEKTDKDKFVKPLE", "assay": "DNA polymerase activity assay, human pol κ", "format": "biochemical", "details": "for Inhibitory effect on human pol κ activity: 50 μM of each compound, Figure 2", "method": "(§1) Pols from mammals, a fish (cherry salmon), an insect (fruit fly) and a plant (cauliflower) were purified, and prokaryotic pols and other DNA metabolic enzymes, such as T7 RNA polymerase, T4 polynucleotide kinase and bovine deoxyribonuclease I, were purchased as described in our previous report. The activities of all pols and other DNA metabolic enzymes were measured as described in previous reports.\n(§2) The components of the pol assay were poly(dA)/oligo(dT)18 and dTTP as the DNA template-primer and 2′-deoxyribonucleoside 5′-triphosphate (dNTP) substrate, respectively. VK2, VK3, and their synthesized derivatives (i.e., MK-3, MK-2 and MK-1) were dissolved in dimethyl sulfoxide (DMSO) at various concentrations and sonicated for 30 s. The sonicated samples (4 μL) were mixed with 16 μL of each pol enzyme (final amount, 0.05 units) in 50 mM Tris-HCl (pH 7.5) containing 1 mM dithiothreitol, 50% glycerol and 0.1 mM EDTA, and kept at 0 °C for 10 min. These inhibitor–enzyme mixtures (8 μL) were added to 16 μL of each standard enzyme reaction mixture (50 mM Tris-HCl [pH 7.5], 1 mM dithiothreitol, 1 mM MgCl2, 15% glycerol, 10 μM poly(dA)/oligo(dT)18 and 10 μM [^3H]-dTTP), and incubation was carried out at 37 °C for 60 min, except for Taq pol, which was incubated at 74 °C for 60 min. Activity without the inhibitor was considered to be 100%, and the activity remaining at each concentration of inhibitor was determined relative to this value. One unit of pol activity was defined as the amount of enzyme that catalyzed the incorporation of 1 nmol dNTP (dTTP) into the synthetic DNA template-primer (poly(dA)/oligo(dT)18, A/T = 2/1) in 60 min at 37 °C under normal reaction conditions for each enzyme (scintillation counts: approximately 1 pmol of incorporated radioactive nucleotides = 100 cpm)."}, "Human DNA polymerase γ [1]": {"molecular_target": "T2, Human DNA polymerase γ (Homo sapiens, UniProt P54098)", "T2 construct": "made in house", "T2 sequence (P54098 1-1239)": "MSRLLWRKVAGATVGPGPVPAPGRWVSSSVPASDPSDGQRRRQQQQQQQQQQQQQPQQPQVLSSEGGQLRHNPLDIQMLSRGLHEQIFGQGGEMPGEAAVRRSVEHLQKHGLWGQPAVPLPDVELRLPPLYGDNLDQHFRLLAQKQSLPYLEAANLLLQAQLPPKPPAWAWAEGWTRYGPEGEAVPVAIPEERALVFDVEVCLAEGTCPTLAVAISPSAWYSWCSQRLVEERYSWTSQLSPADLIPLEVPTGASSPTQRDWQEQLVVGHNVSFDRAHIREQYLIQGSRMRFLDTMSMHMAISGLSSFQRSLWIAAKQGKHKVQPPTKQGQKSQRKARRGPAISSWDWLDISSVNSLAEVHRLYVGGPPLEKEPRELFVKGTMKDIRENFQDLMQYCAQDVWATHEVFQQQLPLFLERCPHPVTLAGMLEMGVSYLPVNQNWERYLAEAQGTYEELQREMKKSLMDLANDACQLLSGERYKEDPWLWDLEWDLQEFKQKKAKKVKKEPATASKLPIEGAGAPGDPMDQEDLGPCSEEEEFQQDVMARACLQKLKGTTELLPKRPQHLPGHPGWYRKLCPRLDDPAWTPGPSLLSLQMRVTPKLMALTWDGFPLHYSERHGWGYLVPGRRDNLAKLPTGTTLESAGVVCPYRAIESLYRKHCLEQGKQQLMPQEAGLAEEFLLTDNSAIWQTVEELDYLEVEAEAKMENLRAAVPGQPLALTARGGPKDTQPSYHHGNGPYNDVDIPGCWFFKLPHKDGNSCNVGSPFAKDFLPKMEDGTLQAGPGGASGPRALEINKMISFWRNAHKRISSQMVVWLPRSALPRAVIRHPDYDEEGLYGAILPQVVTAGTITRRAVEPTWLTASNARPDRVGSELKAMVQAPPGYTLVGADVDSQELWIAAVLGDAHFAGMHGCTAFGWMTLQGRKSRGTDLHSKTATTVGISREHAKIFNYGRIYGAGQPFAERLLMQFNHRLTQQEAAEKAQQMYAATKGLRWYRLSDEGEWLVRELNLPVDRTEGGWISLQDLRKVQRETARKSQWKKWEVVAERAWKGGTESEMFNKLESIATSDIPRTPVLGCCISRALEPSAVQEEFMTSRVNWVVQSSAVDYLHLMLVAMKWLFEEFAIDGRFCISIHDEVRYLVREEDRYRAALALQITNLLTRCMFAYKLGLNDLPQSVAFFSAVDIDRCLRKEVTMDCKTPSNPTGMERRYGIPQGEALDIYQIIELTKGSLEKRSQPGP", "parameters": "method as in PMID 18312466, PMID 18698499, PMID 20030669, PMID 20881898", "details": "earlier work of the authors; cited from earlier work"}, "Human DNA polymerase γ [2]": {"molecular_target": "T2, Human DNA polymerase γ", "assay": "DNA polymerase activity assay, human pol γ", "format": "biochemical", "method": "as §1, §2"}, "[3]": {"molecular_target": "Calf Terminal deoxynucleotidyl transferase (Bos taurus, UniProt P06526)", "sequence (P06526 whole entry)": "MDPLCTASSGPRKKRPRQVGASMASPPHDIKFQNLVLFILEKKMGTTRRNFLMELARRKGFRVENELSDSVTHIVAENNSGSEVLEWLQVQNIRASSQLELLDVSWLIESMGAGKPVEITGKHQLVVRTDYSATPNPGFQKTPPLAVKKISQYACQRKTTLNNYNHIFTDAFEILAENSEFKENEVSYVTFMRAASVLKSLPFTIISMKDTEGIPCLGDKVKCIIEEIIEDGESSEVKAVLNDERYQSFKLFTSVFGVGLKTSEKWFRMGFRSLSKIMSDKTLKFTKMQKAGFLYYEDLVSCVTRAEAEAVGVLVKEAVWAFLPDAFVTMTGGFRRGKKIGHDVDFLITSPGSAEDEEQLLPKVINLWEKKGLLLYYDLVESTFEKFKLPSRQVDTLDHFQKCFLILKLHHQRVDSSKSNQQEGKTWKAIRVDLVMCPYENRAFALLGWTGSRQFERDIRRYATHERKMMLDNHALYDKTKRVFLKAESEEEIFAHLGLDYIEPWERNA", "assay": "DNA polymerase activity assay, calf TdT", "format": "biochemical", "details": "X-family pol; read-out: IC50 Value of MK-2, Calf Terminal deoxynucleotidyl transferase", "method": "as §1\n(§3) The components of the pol assay were poly(dA)/oligo(dT)18 and dTTP as the DNA template-primer and 2′-deoxyribonucleoside 5′-triphosphate (dNTP) substrate, respectively. VK2, VK3, and their synthesized derivatives (i.e., MK-3, MK-2 and MK-1) were dissolved in dimethyl sulfoxide (DMSO) at various concentrations and sonicated for 30 s. The sonicated samples (4 μL) were mixed with 16 μL of each pol enzyme (final amount, 0.05 units) in 50 mM Tris-HCl (pH 7.5) containing 1 mM dithiothreitol, 50% glycerol and 0.1 mM EDTA, and kept at 0 °C for 10 min. […] Activity without the inhibitor was considered to be 100%, and the activity remaining at each concentration of inhibitor was determined relative to this value. […]"}, "T4 DNA polymerase": {"molecular_target": "T3, T4 DNA polymerase (Enterobacteria phage T4, UniProt P04415)", "T3 construct": "purchased", "T3 sequence (P04415 whole entry)": "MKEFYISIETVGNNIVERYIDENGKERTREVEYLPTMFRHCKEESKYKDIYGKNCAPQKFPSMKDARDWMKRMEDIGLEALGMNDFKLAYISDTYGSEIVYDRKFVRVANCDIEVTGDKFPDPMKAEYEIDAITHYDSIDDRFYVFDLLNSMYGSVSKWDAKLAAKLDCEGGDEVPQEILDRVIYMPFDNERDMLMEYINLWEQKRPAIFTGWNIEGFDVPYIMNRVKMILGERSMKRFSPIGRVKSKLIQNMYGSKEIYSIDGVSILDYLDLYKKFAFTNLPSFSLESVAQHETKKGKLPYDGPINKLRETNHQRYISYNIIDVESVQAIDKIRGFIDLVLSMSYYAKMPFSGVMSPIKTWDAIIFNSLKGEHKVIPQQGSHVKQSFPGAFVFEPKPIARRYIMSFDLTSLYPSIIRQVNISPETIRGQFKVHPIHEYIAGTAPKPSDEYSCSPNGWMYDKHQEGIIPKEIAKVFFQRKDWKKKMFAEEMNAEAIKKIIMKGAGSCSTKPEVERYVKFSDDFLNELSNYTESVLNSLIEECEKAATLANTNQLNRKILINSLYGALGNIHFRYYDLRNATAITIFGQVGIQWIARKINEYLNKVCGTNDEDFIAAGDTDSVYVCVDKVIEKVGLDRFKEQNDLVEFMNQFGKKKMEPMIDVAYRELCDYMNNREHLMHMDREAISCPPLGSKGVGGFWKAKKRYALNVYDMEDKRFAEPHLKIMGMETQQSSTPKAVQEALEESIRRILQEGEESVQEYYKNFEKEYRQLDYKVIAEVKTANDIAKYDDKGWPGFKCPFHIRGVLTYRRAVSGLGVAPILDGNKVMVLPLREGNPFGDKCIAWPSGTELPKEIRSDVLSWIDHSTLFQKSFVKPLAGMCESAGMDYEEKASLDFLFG", "assay": "DNA polymerase activity assay, T4 pol", "format": "biochemical", "details": "prokaryotic pol; read-out: IC50 Value of MK-2, T4 DNA polymerase", "method": "as §1, §3"}, "[4]": {"molecular_target": "Calf primase of DNA polymerase α (Bos taurus, UniProt A0A3Q1MF00)", "sequence (A0A3Q1MF00 entry or part of it)": "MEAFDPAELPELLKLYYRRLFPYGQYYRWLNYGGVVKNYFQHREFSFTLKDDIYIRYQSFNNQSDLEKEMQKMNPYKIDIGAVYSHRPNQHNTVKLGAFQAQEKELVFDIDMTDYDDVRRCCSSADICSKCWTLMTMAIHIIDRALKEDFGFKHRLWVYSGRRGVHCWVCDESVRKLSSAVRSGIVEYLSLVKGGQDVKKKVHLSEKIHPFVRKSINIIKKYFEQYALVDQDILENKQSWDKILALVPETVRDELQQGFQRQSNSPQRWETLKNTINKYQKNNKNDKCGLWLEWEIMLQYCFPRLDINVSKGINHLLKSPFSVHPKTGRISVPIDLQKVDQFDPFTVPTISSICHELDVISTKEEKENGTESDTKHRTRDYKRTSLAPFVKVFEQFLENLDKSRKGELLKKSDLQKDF", "sequence (A0AAA9THK8 entry or part of it, further chain)": "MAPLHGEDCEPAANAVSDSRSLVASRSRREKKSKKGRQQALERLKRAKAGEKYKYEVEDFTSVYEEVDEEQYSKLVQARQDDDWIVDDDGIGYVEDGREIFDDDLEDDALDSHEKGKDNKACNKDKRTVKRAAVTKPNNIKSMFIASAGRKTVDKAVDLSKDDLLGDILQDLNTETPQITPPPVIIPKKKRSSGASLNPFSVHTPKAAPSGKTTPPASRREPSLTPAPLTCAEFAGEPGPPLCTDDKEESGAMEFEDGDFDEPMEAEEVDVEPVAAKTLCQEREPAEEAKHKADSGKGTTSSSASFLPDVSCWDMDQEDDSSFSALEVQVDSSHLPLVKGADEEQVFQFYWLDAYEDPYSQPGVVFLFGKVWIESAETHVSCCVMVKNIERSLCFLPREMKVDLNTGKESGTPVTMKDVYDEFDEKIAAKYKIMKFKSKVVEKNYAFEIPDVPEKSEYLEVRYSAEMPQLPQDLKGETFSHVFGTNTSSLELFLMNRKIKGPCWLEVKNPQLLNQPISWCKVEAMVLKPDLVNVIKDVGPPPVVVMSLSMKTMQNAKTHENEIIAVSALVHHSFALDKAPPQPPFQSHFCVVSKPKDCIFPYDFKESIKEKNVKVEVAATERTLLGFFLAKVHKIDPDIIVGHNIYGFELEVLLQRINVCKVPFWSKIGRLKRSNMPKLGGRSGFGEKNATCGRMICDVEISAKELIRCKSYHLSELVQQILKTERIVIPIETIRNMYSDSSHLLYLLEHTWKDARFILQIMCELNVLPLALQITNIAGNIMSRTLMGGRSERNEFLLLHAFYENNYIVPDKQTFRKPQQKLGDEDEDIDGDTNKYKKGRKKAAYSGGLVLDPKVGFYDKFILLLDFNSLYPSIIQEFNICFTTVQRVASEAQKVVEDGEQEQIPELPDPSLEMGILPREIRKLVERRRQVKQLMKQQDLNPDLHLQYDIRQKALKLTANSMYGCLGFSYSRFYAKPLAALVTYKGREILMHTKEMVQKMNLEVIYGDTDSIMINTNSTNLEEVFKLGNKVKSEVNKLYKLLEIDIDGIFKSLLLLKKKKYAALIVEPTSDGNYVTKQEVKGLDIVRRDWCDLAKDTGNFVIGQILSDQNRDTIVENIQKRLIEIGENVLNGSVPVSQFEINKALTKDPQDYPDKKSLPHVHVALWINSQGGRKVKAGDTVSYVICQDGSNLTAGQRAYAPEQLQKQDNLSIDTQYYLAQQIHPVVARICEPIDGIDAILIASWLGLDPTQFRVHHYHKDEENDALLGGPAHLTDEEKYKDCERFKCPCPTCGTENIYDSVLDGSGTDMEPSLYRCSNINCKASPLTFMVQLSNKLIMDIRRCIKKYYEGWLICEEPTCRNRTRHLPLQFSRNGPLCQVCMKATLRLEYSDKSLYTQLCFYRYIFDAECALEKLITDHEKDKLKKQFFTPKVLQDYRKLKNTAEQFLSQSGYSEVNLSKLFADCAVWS", "sequence (A0JNF4 entry or part of it, further chain)": "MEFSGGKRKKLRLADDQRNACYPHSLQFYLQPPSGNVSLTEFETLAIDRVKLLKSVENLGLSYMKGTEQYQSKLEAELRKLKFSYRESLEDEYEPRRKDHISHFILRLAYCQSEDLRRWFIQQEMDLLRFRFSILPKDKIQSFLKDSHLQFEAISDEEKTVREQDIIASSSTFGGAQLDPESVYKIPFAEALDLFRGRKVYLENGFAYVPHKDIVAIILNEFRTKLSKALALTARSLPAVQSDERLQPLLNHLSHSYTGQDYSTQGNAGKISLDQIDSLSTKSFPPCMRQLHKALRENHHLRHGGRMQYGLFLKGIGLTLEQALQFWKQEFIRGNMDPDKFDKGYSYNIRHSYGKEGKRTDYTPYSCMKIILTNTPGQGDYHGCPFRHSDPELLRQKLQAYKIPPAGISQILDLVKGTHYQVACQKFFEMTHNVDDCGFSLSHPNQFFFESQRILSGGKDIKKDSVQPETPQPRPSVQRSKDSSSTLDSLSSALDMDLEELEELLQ", "sequence (Q58D13 whole entry, further chain)": "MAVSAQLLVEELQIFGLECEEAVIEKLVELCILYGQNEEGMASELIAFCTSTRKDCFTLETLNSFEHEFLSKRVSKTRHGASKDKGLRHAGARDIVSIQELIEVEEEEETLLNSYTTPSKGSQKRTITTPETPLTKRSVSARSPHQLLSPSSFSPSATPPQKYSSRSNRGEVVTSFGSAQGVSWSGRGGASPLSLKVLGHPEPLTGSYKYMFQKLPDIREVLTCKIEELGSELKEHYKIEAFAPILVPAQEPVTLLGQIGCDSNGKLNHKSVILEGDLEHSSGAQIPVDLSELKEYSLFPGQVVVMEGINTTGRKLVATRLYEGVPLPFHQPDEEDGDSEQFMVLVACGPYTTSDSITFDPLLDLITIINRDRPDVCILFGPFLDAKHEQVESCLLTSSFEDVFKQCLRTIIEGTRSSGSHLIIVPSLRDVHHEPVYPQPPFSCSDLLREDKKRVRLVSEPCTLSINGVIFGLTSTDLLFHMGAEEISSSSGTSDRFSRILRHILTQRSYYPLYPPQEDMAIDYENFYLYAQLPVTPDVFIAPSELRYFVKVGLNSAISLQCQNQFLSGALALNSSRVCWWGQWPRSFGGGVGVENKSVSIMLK", "assay": "DNA metabolic enzyme assay, calf primase of pol α", "format": "biochemical", "details": "other DNA metabolic enzyme; read-out: IC50 Value of MK-2, Calf primase of DNA polymerase α", "method": "as §1"}}, "data": [{"smiles": "CC(C)=CCC/C(C)=C/CC/C(C)=C/CC1=C(C)C(=O)c2ccccc2C1=O", "note": "[MK-3]", "values": [{"measurement": "Inhibitory effect on human pol κ activity", "setting": "Human DNA polymerase κ", "value": "inhibited the activity"}]}, {"smiles": "CC(C)=CCC/C(C)=C/CC/C(C)=C/CC/C(C)=C/CC1=C(C)C(=O)c2ccccc2C1=O", "note": "[MK-4, menaquinone 4, reference compound]", "values": [{"measurement": "Inhibitory effect on human pol κ activity", "setting": "Human DNA polymerase κ", "value": "had no effect on pol activity"}, {"measurement": "Inhibitor of human pol γ", "setting": "Human DNA polymerase γ [1]", "value": "not"}, {"measurement": "Inhibitory effect on human pol γ activity", "setting": "Human DNA polymerase γ [2]; 50 μM of each compound, Figure 2", "value": "had no effect on pol activity"}]}, {"smiles": "CC(C)=CCC/C(C)=C/CC1=C(C)C(=O)c2ccccc2C1=O", "note": "[MK-2]", "values": [{"measurement": "Inhibitory effect on human pol κ activity", "setting": "Human DNA polymerase κ", "value": "inhibited the activity"}, {"measurement": "IC50", "setting": "Human DNA polymerase κ; Y-family pol, read-out: IC50 Value of MK-2, Human DNA polymerase κ", "value": "35.3 ± 2.1", "unit": "µM"}, {"measurement": "IC50", "setting": "[3]", "value": "29.4 ± 1.7", "unit": "µM"}, {"measurement": "IC50", "setting": "T4 DNA polymerase", "value": "> 200", "unit": "µM"}, {"measurement": "IC50", "setting": "Human DNA polymerase γ [2]; A-family pol, poly(dA)/oligo(dT)18 and dTTP, read-out: IC50 Value of MK-2, Human DNA polymerase γ", "value": "68.8 ± 3.4", "unit": "µM"}, {"measurement": "IC50", "setting": "[4]", "value": "> 200", "unit": "µM"}]}, {"smiles": "CC(C)=CCC1=C(C)C(=O)c2ccccc2C1=O", "note": "[MK-1]", "values": [{"measurement": "Inhibitory effect on human pol κ activity", "setting": "Human DNA polymerase κ", "value": "inhibited the activity"}]}]}
